# Source: US20240285773A1, “METHODS OF TREATING MYELODYSPLASTIC SYNDROME AND MONITORING THE TREATMENT” (Geron Corporation, priority 2023, published 2024)
# Read-outs that look alike come from different tables or passages of the source. [nps] = N3'→P5' thiophosphoramidate linkage; {Palm} = palmitoyl lipid
# Test system: RBC transfusion-dependent patients with IPSS low or intermediate-1 risk MDS
# [1] = by lab assessment, listed as imetelstat
substance,measurement,setting,value
"Imetelstat: first-in-class telomerase inhibitor; synthetic lipid-conjugated 13-mer oligonucleotide N3′→P5′-thiophosphoramidate (TAGGGTTAGACAA; all [nps], 5' {Palm}, sugars by position and methylation of C not given here)","Thrombocytopenia, maximum postbaseline CTCAE Grade 4",Cycle 10-12 (N=53),0 No. of Patients
same,"ALP abnormality, Grade 3-4",N=118,0 No. of patients
same,Serious TEAE: Abscess limb,N=118,0 No.
same,Patients with any dose reduction,"N=118, listed as imetelstat",49%
same,Withdrawal TEAE: Neutropenia,"N=118, listed as imetelstat",5%
same,Withdrawal TEAE: Thrombocytopenia,"N=118, listed as imetelstat",3%
same,"Asthenia, Grade 3-4","TEAE, N=118",0 No. of patients
same,"Constipation, Grade 3-4","TEAE, N=118",0 No. of patients
same,"Edema peripheral, Grade 3-4","TEAE, N=118",0 No. of patients
same,G3/4 Neutropenia events,by lab assessment,279 no. of events
same,G3/4 Neutropenia median duration,by lab assessment,1.86 Weeks
same,G3/4 Thrombocytopenia events,by lab assessment,212 no. of events
same,G3/4 Thrombocytopenia median duration,by lab assessment,1.43 Weeks
same,G3/4 Neutropenia median duration,[1],1.9 Weeks
same,G3/4 Thrombocytopenia median duration,[1],1.4 Weeks
same,Dose delays due to neutropenia,in vivo,50.8%
same,Dose delays due to thrombocytopenia,in vivo,46.6%
same,Dose reductions due to neutropenia,in vivo,33.1%
same,Dose reductions due to thrombocytopenia,in vivo,22.9%
same,Patients with cytopenias reversible to Grade ≤2 within 4 weeks,in vivo,more than 80%
same,Discontinued: Progressive disease,n=118,6%
same,Grade 3-4 neutropenia,patients with TI ≥1 year,95%
same,"Grade 3-4 neutropenia, patients",patients with TI ≥1 year,20 patients
same,Grade 3-4 thrombocytopenia,patients with TI ≥1 year,67%
same,"Grade 3-4 thrombocytopenia, patients",patients with TI ≥1 year,14 patients
same,"Grade 3/4 neutropenia events, mean (SD) duration",patients with TI ≥1 year,1.78 (1.58) weeks
same,Grade 3/4 neutropenia reversible to grade ≤2 within 4 weeks,patients with TI ≥1 year,81%
same,"Grade 3/4 thrombocytopenia events, mean (SD) duration",patients with TI ≥1 year,2.25 (2.48) weeks
same,Grade 3/4 thrombocytopenia reversible to grade ≤2 within 4 weeks,patients with TI ≥1 year,89%
same,G3/4 Neutropenia resolved <4 weeks,resolved to ≤ Grade 2,81%
same,G3/4 Thrombocytopenia resolved <4 weeks,resolved to ≤ Grade 2,86%
